# Where two headings read alike, the source gives them in different places. Bridges are numbered along the chain shown (N, C = ends). Where no end group is shown, it is not given here.
# How the values were obtained:
# C5 activation by the CP = assay: Complement activation assays, classical pathway (overall); format: biochemical; conditions: C5a release, C5b neo-epitope formation and C9 deposition ELISAs; human serum
# Protocol: (§1) For functional characterisation of the peptides, we performed complement assays for CP and AP activation in human serum, assessing C5b neo-epitope formation and C5a release (schematically presented in Figure 1A, B), in combination with orthogonal ELISAs, measuring C3b and C9 deposition.
# (§2) For the C3 and C9 ELISAs, microtiter plates (MaxiSorp; Nunc) were incubated overnight at 4°C with 50 µL of a solution of in 75 mM sodium carbonate (pH 9.6) containing either 2.5 µg/mL aggregated human IgG (Sigma-Aldrich, Gillingham, UK) for CP or 20 µg/mL zymosan (Sigma-Aldrich, Gillingham, UK) for AP. As a negative control, wells were coated with 1% (w/v) bovine serum albumin (BSA)/PBS. […] Complement activation was assessed through detection of deposited complement activation factors using specific antibodies against C3b (rat anti-human C3d HM2198, Hycult, Uden, The Netherlands) and C9 (goat anti-human C9, A226, Complement Technologies Tyler, TX) at a 1:1000 dilution. Bound primary antibodies were detected with […]-conjugated goat anti-rat (ab97057, Abcam, Cambridge, UK) or rabbit anti-goat (P0449, Agilent Dako, Santa Clara, CA) secondary antibodies at a 1:1000 dilution. Bound HRP-conjugated antibodies were detected using TMB One solution (Eco-TEK – manufactured by Bio-TEK, Winooski, VT) with absorbance measured at 450 nm. […]
# C3b deposition = C3b deposition ELISA (CP and AP); format: biochemical; conditions: CP (1% serum) and AP (5% serum) ELISA, anti-human C3d
# Protocol: For the C3 and C9 ELISAs, microtiter plates (MaxiSorp; Nunc) were incubated overnight at 4°C with 50 µL of a solution of in 75 mM sodium carbonate (pH 9.6) containing either 2.5 µg/mL aggregated human IgG (Sigma-Aldrich, Gillingham, UK) for CP or 20 µg/mL zymosan (Sigma-Aldrich, Gillingham, UK) for AP. As a negative control, wells were coated with 1% (w/v) bovine serum albumin (BSA)/PBS. Microtiter plates were washed four times with 250 µL of wash buffer (50 mM Tris-HCl), 150 mM NaCl and 0.1% Tween 20 (pH 8) between each step of the procedure. Wells were blocked using 250 µL of 1% (w/v) BSA/PBS for 2 hr at room temperature. […] Complement activation was assessed through detection of deposited complement activation factors using specific antibodies against C3b (rat anti-human C3d HM2198, Hycult, Uden, The Netherlands) and C9 (goat anti-human C9, A226, Complement Technologies Tyler, TX) at a 1:1000 dilution. Bound primary antibodies were detected with […]-conjugated goat anti-rat (ab97057, Abcam, Cambridge, UK) or rabbit anti-goat (P0449, Agilent Dako, Santa Clara, CA) secondary antibodies at a 1:1000 dilution. Bound HRP-conjugated antibodies were detected using TMB One solution (Eco-TEK – manufactured by Bio-TEK, Winooski, VT) with absorbance measured at 450 nm.
# [1] = system: sheep erythrocytes (classical pathway haemolysis); assay: Inhibition of classical pathway haemolysis; format: cell-based, sheep erythrocytes; normal human serum; conditions: 1% serum
# Protocol: GVB^++ or Mg EGTA buffers, which had been supplemented with 2.5% glucose (w/v), were used for the CP and AP assays, respectively. For the AP, 150 µL of rabbit erythrocytes (TCS Biosciences, Botolph Claydon, UK) were washed twice, by addition of 1 mL of buffer and centrifugation at 800 ×g for 1 min, and finally resuspended in 500 µL of buffer. For the CP, 150 µL sheep erythrocytes (TCS Biosciences, Botolph Claydon, UK) were washed twice with 1 mL of buffer and sensitised with a 1/1000 dilution of rabbit anti-sheep red blood cell stroma antibody (S1389, Sigma Aldrich, Gillingham, UK). After a 30°C/30 min incubation, with shaking, the cells were rewashed and resuspended with 500 µL of buffer. Serial dilutions of peptide were prepared in the respective buffers and normal human serum was added at 1% for the CP and 4.5% for the AP (corresponding to CH50 of the serum). Also, 90 µL of peptide–serum mixtures were plated into a V-bottom 96-well microtiter plate (Corning) and 10 µL of erythrocytes were added. Plates were incubated for 30 min at 37°C, with shaking. Finally, 50 µL of buffer was added, the plates centrifuged at 800 ×g, and 80 µL of supernatant was transferred to an ELISA plate (Nunc) and absorbance measured at 405 nm.
# Table 1.7. Inhibition of classical pathway haemolysis.
# [2] = system: alternative pathway mediated C5a release (complement C5); assay: Inhibition of alternative pathway mediated C5a release (ELISA); format: biochemical, human; conditions: AP C5a release; n=3 (K8: n=4); ND* = Not detected
# Protocol: For the C5b ELISA, assays were run using the CP and AP Complement functional ELISA kits (Svar Life Science, Malmö, Sweden). For sample preparation, serum was diluted as per the respective protocol for the CP and AP assays. Serial dilutions of peptides were prepared and allowed to incubate with serum for 15 min at room temperature prior to plating.
# For the C5a ELISA, assays were run using the Complement C5a Human ELISA Kit (Invitrogen, Renfrew, UK). For sample preparation, at the end of the 37°C incubation of the serum/peptide samples on the C5b ELISA plate, 50 µL of the diluted, activated serum was transferred to a C5a ELISA plate containing 50 µL/well of assay buffer. All subsequent experimental steps were performed as described in the protocol.
# Table 1.4. Inhibition of alternative pathway mediated C5a release.
# Data from n=3, unless otherwise stated
# human C5 = target: T1, human C5 (Homo sapiens, UniProt P01031); assay: SPR multi-cycle kinetics, binding to C5
# T1 construct: tissue TCS Biosciences (serum); host or cells: human serum
# T1 sequence (P01031 678-1676 limits assumed): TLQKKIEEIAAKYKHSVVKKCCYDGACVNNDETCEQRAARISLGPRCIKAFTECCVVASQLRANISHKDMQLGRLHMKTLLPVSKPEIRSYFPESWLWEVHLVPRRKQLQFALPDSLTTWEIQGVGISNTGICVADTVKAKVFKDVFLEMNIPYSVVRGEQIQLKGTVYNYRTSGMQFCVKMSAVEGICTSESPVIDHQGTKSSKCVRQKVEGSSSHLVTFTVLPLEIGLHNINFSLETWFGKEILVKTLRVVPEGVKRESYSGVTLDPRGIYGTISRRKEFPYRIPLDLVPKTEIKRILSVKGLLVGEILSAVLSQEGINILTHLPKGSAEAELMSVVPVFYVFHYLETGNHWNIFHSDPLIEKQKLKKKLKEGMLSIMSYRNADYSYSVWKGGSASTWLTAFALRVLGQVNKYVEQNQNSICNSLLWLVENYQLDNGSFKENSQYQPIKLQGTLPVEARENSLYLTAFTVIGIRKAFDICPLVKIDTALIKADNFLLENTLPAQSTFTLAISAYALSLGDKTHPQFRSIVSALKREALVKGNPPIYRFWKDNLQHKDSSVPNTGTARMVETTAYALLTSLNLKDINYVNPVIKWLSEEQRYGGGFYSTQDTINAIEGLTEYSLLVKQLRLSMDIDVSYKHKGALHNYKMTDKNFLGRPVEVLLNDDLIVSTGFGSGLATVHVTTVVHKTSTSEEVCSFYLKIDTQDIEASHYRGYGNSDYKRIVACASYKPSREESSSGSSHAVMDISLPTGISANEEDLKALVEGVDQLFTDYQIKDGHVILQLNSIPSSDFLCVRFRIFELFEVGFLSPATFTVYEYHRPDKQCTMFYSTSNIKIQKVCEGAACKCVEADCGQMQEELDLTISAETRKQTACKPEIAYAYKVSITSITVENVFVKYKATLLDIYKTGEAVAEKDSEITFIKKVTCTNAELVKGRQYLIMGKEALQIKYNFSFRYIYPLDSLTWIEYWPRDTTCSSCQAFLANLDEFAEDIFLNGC
# T1 sequence (P01031 19-673 limits assumed): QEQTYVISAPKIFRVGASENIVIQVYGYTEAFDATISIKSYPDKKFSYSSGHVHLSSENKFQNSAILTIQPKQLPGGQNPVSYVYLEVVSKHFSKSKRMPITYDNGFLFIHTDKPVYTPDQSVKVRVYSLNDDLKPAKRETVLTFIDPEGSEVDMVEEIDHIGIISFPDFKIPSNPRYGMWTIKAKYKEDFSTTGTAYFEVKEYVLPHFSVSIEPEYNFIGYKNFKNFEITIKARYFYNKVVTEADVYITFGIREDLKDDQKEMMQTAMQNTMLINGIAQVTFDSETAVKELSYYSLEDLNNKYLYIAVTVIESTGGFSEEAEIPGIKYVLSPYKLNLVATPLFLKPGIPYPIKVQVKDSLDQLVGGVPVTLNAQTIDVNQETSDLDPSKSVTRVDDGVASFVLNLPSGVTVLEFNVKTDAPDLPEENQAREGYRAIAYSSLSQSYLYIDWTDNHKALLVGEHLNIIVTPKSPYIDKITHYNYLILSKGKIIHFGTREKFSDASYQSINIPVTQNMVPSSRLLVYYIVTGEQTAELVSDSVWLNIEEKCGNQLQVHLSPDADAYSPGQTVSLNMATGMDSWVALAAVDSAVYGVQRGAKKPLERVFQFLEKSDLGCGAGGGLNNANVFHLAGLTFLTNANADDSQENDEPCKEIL
# Protocol: Kinetics were measured using a Biacore 8K (GE Healthcare, Amersham, UK) with a CM5 chip, which was prepared as follows: 1-ethyl-3-(−3-dimethylaminopropyl) carbodiimide hydrochloride (EDC)/N-hydroxysuccinimide (NHS) was mixed at 1:1 ratio (flow rate, 10 µL/min; contact time, 30 s), and human C5 at 1 µg/mL in pH 4.5 sodium acetate buffer was injected over flow cell one only (flow rate, 10 µL/min; contact time, 60 s). Final immobilisation levels in the range of 2000–3000 RUs were obtained to yield theoretical Rmax values of ~50–60 RU. […] After each injection, the surface was regenerated with two sequential injections of 2 M MgCl2 (flow rate, 30 µL/min; contact time, 30 s). Binding to the reference surface was subtracted, and the data were fitted to a single-site binding model using Biacore evaluation software.
# Table 2.6. Validation of molecular interactions by peptide mutagenesis analysis.
# Summary of SPR multi-cycle kinetics
# C5 activation by the AP = assay: Complement activation assays, alternative pathway (overall); format: biochemical; conditions: C5a release, C5b neo-epitope formation and C9 deposition ELISAs; human serum
# Protocol: as §1, §2
sequence,measurement,setting,value
"SVCPDGFDWGYGCAAGSSRFCTRHDWCCYDERADSHTYGFCTGNRVENLYFQ (disulfide 3-28, 13-21, 27-41) [K8]","inhibition of C5 activation, CP assays (in words)",C5 activation by the CP,partially inhibiting both the AP and CP
same,effect on C3b deposition,C3b deposition,no effect on C3b deposition was detected
same,Average Emax,"[1]; CP haemolysis, n=3, ND* = Not detected",95.6%
same,inhibition of CP haemolysis (in words),[1]; sheep erythrocytes,efficacious in the CP assay
same,Average Emax,[2],71.8%
same,mean stoich. ratio,"human C5; Biacore 8K, mean of n=3",0.25
same,koff,"human C5; pH 7.4, read-out: mean koff, Biacore 8K, HBS-EP pH 7.4, mean of n=3",0.000385 s⁻¹
same,kon,"human C5; pH 7.4, read-out: mean kon, Biacore 8K, CM5 chip, HBS-EP pH 7.4, mean of n=3",70500 M⁻¹ s⁻¹
same,koff,human C5; replicate n=1,0.000372 s⁻¹
same,kon,human C5; replicate n=1,71000 M⁻¹ s⁻¹
same,stoich. ratio,human C5; replicate n=1,0.28
same,koff,human C5; replicate n=2,0.000422 s⁻¹
same,kon,human C5; replicate n=2,72600 M⁻¹ s⁻¹
same,stoich. ratio,human C5; replicate n=2,0.23
same,koff,human C5; replicate n=3,0.000361 s⁻¹
same,kon,human C5; replicate n=3,67800 M⁻¹ s⁻¹
same,stoich. ratio,human C5; replicate n=3,0.24
same,"inhibition of C5 activation, AP assays (in words)",C5 activation by the AP,partially inhibiting both the AP and CP

# — PMC7972453, “The allosteric modulation of complement C5 by knob domain peptides” (eLife, 2021)
